Test results as given in paper PMC10108347, “Heterobifunctional Ligase Recruiters Enable pan-Degradation of Inhibitor of Apoptosis Proteins” (Journal of Medicinal Chemistry, 2023).
“And” between values parts separate entries of the source, which are not always exact repeats. Equal values may be shown once. Read-outs that look alike come from different tables or passages of the source.

Key:
cIAP1 (BIRC2) = biological target: T1, cIAP1 (BIRC2) (Homo sapiens, UniProt Q13490); assay: diaPASEF quantitative proteomics in MM.1S cells: cIAP1 (BIRC2); format: cell-based; settings: 3 h; for cIAP1 level in global proteomics (in words): 100 nM, diaPASEF
T1 construct: endogenous in cells; host or cells: MM.1S
T1 sequence (Q13490 whole entry): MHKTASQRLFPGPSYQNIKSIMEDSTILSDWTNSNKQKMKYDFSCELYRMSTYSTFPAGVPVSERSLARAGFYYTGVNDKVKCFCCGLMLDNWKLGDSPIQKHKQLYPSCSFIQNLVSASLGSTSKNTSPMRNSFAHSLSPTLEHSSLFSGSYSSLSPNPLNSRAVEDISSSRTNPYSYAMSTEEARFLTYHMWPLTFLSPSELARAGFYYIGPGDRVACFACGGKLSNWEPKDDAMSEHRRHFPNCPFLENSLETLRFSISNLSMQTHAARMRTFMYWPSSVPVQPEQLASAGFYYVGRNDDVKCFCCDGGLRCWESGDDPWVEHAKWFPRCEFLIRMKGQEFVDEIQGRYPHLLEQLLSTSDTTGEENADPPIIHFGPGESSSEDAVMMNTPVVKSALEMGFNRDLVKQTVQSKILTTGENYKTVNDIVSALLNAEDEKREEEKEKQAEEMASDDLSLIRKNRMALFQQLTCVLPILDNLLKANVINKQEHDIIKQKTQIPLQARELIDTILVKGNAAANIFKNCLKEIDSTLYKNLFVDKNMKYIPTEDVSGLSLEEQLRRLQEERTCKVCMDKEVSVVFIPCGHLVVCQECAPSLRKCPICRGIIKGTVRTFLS
Experimental: (§1) To analyze the proteome-wide degradation selectivity of hetero-PROTACs 9, 25, and 27, a diaPASEF-based mass spectrometry approach was employed.[54] MM.1S cells were treated with 100 nM PROTACs for 3 h. […] Accordingly, global proteomic plots show the mathematically imputed levels of IAP proteins in treatment groups if the corresponding IAP was detected in the control treatment (see also Experimental Section).
(§2) MM1s cells were treated with DMSO or 0.1 μM of compound for 3 h. The cells were harvested by centrifugation and washed with phosphate-buffered saline before snap-freezing in liquid nitrogen. The cells were lysed by addition of lysis buffer (8 M urea, 50 mM NaCl, 50 mM 4-(2-hydroxyethyl)-1-piperazine-ethanesulfonic acid (EPPS) pH 8.5, protease, and phosphatase inhibitors) and homogenization by bead beating (BioSpec) for three repeats of 30 s at 2400. Bradford assay was used to determine the final protein concentration in the clarified cell lysate. 50 μg of protein for each sample was reduced, alkylated, and precipitated using methanol/chloroform as previously described,[64] and the resulting washed precipitated protein was allowed to air dry. The precipitated protein was resuspended in 4 M urea, 50 mM HEPES pH 7.4, followed by dilution to 1 M urea with the addition of 200 mM EPPS, pH 8. Proteins were first digested with LysC (1:50; enzyme/protein) for 12 h at RT. The LysC digestion was diluted to 0.5 M urea with 200 mM EPPS pH 8, followed by digestion with trypsin (1:50; enzyme/protein) for 6 h at 37 °C. Sample digests were acidified with formic acid to a pH of 2–3 prior to desalting using C18 solid-phase extraction plates (SOLA, Thermo Fisher Scientific). Desalted peptides were dried in a vacuum centrifuge and reconstituted in 0.1% formic acid for LC–MS analysis.
(§3) Data were collected using a TimsTOF Pro2 (Bruker Daltonics, Bremen, Germany) coupled to a nanoElute LC pump (Bruker Daltonics, Bremen, Germany) via a CaptiveSpray nanoelectrospray source. Peptides were separated on a reversed-phase C18 column (25 cm × 75 μm ID, 1.6 μM, IonOpticks, Australia) containing an integrated captive spray emitter. Peptides were separated using a 50 min gradient of 2–30% buffer B (acetonitrile in 0.1% formic acid) with a flow rate of 250 nL/min and column temperature maintained at 50 °C.
(§4) Data-Dependent Acquisition (DDA) was performed in the Parallel Accumulation-Serial Fragmentation (PASEF) mode to determine effective ion mobility windows for downstream diaPASEF data collection.[54] The diaPASEF parameters included 100% duty cycle using accumulation and ramp times of 50 ms each, 1 TIMS-MS scan, and 10 PASEF ramps per acquisition cycle. The TIMS-MS survey scan was acquired between 100–1700 m/z and 1/K0 of 0.7–1.3 V × s/cm^2. Precursors with 1–5 charges were selected, and those that reached an intensity threshold of 20,000 arbitrary units were actively excluded for 0.4 min. The quadrupole isolation width was set to 2 m/z for m/z < 700 and 3 m/z for m/z > 800, with the m/z between 700 and 800 m/z being interpolated linearly. The TIMS elution voltages were calibrated linearly with three points (Agilent ESI-L Tuning Mix Ions; 622, 922, 1222 m/z) to determine the reduced ion mobility coefficients (1/K0). To perform diaPASEF, the precursor distribution in the DDA m/z-ion mobility plane was used to design an acquisition scheme for DIA data collection, which included two windows in each 50 ms diaPASEF scan. […]

MOLM13 = assay: CellTiter-Glo cell viability assay, MOLM13; format: cell-based; settings: Homo sapiens
Experimental: (§5) As TNF-α and related signaling cascades represent crucial factors for the single-agent activity of IAP-targeting compounds,[29],[38],[39],[55] the viability inhibition of sensitive cell lines was evaluated in the presence and absence of this inflammatory stimulus. […] These effects were independent of IAP baseline levels (Figure S16), which is in agreement with the previous studies of IAP antagonists.
(§6) Cells were seeded in 384-well plates with respective treatments, and plates were incubated at 37 °C for 96 h. Viability assays were performed with or without the addition of TNF-α at 1 ng/mL. The cell viability readout was measured using the CellTiter-Glo Luminescent Cell Viability Assay (Promega, Madison, USA) and measured with a Synergy LX Multi-Mode plate reader (BioTek, Vermont, USA). All conditions were normalized to the DMSO-treated control. Data represents the mean ± SD of biological triplicates.

[1] = Log D7.4 measurement by chromatographic (fast-gradient HPLC) method; settings: pH 7.4
Experimental: The system was calibrated by plotting the retention times of six different drugs (atenolol, metoprolol, labetalol, diltiazem, triphenylene, and permethrin) versus their literature-known log D7.4 in a calibration line (R^2 = 0.99). Subsequently, the mean retention times of the analytes were taken to calculate their log D7.4 values with the aid of the calibration line. At least two independent measurements of each analyte were performed.

JJN3 = assay: CellTiter-Glo cell viability assay, JJN3; format: cell-based; settings: Homo sapiens
Experimental: as §5, §6

NCI-H929 = assay: CellTiter-Glo cell viability assay, NCI-H929; format: cell-based; settings: Homo sapiens
Experimental: as §5, §6

[2] = test system: IAPs (cIAP1, cIAP2, XIAP); assay: Immunoblotting of IAPs in MM.1S cells, overall degradation profile, time course and washout; format: cell-based; settings: for IAP degradation profile (in words): 16 h, western blot, concentration (10 nM to 1 μM); for time to complete degradation of cIAP1, cIAP2 and XIAP: 0.1 μM, time course
Experimental: Next, we examined the persistence of IAP degradation in MM.1S cells after a single exposure to 1 μM of 9 and subsequent removal of the compound. […] The reliance on CRL2^VHL was assessed with a neddylation inhibitor MLN4924, which blocks the activity of CRLs (Figure S13A).

DB = assay: CellTiter-Glo cell viability assay, DB; format: cell-based; settings: Homo sapiens
Experimental: as §5, §6

XIAP = XIAP (Homo sapiens, UniProt P98170); assay: diaPASEF quantitative proteomics in MM.1S cells: XIAP; format: cell-based; set-up: endogenous in cells; host or cells: MM.1S; settings: 3 h; for XIAP level in global proteomics (in words): 100 nM, diaPASEF; for logFC XIAP: 0.1 μM, log2 fold change compound vs CTRLs (limma)
Sequence of XIAP (P98170 whole entry): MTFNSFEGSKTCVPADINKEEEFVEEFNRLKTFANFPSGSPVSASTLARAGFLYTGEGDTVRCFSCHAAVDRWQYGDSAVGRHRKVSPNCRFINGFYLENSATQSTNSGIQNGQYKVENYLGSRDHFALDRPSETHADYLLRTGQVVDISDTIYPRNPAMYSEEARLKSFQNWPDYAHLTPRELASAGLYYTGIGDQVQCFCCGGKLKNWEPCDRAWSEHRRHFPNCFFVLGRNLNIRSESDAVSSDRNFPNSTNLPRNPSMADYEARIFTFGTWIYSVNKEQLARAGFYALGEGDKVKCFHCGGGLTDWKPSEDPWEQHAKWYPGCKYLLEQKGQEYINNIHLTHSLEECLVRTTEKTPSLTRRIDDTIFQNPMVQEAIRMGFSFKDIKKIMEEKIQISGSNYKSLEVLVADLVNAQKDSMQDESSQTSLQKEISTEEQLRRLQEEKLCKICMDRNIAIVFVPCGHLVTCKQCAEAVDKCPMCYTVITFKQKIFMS
Experimental: as §1, §2, §3
as §4, with “scan. Data was acquired using 16 of these 25 Da precursor double window scans (creating 32 windows), which covered the diagonal scan line for doubly and triply charged precursors, with singly charged precursors able to be excluded by their position in the m/z-ion mobility plane. These precursor isolation windows were defined between 400–1200 m/z and 1/K0 of 0.7–1.3 V × s/cm^2.” for “scan.”

RPMI-8826 = assay: CellTiter-Glo cell viability assay, RPMI-8826; format: cell-based
Experimental: as §5, §6

SUDHL4 = assay: CellTiter-Glo cell viability assay, SUDHL4; format: cell-based; settings: Homo sapiens
Experimental: as §5, §6

[3] = SI csv, head prints only the cell line, no quantity or unit, values parallel Table 1/S8, read-out: DB

Compound | cIAP1 level in global proteomics (in words) (cIAP1 (BIRC2)) | chromatographic logD [1] | IAP degradation profile (in words) [2] | IC50 (DB; [3]) | XIAP level in global proteomics (in words) (XIAP) | time to complete degradation of cIAP1, cIAP2 and XIAP [2] | logFC XIAP (XIAP) | also measured
CN[C@@H](C)C(=O)N[C@@H](C(=O)N1CCC[C@H]1C(=O)N[C@@H]1c2ccccc2C[C@@H]1OCC#CC#CCO[C@H]1Cc2ccccc2[C@H]1NC(=O)[C@@H]1CCCN1C(=O)[C@H](NC(=O)[C@H](C)NC)C1CCCCC1)C1CCCCC1 [AZD5582, reference compound] | depleted cIAP1 below the detection level | 4.1 | potent cIAP autodegradation | 73 nM | did not cause XIAP degradation |  |  | IC50 (MOLM13; MOLM-13, SI csv, head prints only the cell line, no quantity or unit, values parallel Table 1/S8, read-out: MOLM13): 2 nM; IC50 (JJN3; JJN-3, SI csv, head prints only the cell line, no quantity or unit, values parallel Table 1/S8, read-out: JJN3): 200 nM; IC50 (NCI-H929; SI csv, head prints only the cell line, no quantity or unit, values parallel Table 1/S8, read-out: NCI-H929): 14 nM; IC50 (RPMI-8826; SI csv, head prints only the cell line, no quantity or unit, values parallel Table 1/S8, read-out: RPMI-8826): 470 nM; IC50 (SUDHL4; SU-DHL-4, SI csv, head prints only the cell line, no quantity or unit, values parallel Table 1/S8, read-out: SUDHL4): 1640 nM
CN[C@@H](C)C(=O)N[C@H](C(=O)N1C[C@@H](Oc2cccc(OCCCCC(=O)N[C@H](C(=O)N3C[C@H](O)C[C@H]3C(=O)N[C@@H](C)c3ccc(-c4scnc4C)cc3)C(C)(C)C)c2)C[C@H]1C(=O)N[C@@H]1CCCc2ccccc21)C1CCCCC1 [PROTAC 9, (2S,4S)-1-((S)-2-Cyclohexyl-2-((S)-2-(methylamino)propanamido)acetyl)-4-(3-((5-(((S)-1-((2S,4R)-4-hydroxy-2-(((S)-1-(4-(4-methylthiazol-5-yl)phenyl)ethyl)carbamoyl)pyrrolidin-1-yl)-3,3-dimethyl-1-oxobutan-2-yl)amino)-5-oxopentyl)oxy)phenoxy)-N-((R)-1,2,3,4-tetrahydronaphthalen-1-yl)pyrrolidine-2-carboxamide] | below the detection level |  | induces cIAP1, cIAP2, XIAP, and VHL30 degradation in a dose-dependent manner | 510 nM | below the detection level | ≤ 3 h | -1.764 | IC50 (MOLM13; MOLM-13, AML cell line, 96 h, TNFα-challenged, read-out: IC50 cell viability MOLM13): 2.1 nM; IC50 (JJN3; JJN-3, MM cell line, 96 h, TNFα-challenged, read-out: IC50 cell viability JJN3): 1140 nM; IC50 (NCI-H929; NCI-H929, MM cell line, 96 h, TNFα-challenged, read-out: IC50 cell viability NCI-H929): 8.5 nM; persistence of IAP degradation after washout (in words) ([2]; single exposure to 1 μM for 16 h, then compound removal): nearly full and stable pan-degradation of IAPs up to 72 h; IC50 (DB; DB, DLBCL cell line, 96 h, TNFα-challenged, read-out: IC50 cell viability DB): 460 nM; IC50 (RPMI-8826; MM cell line, 96 h, TNFα-challenged, read-out: IC50 cell viability RPMI-8826): 2540 nM; IC50 (SUDHL4; SU-DHL-4, DLBCL cell line, 96 h, TNFα-challenged, read-out: IC50 cell viability SUDHL4): 1690 nM
CN[C@@H](C)C(=O)N[C@H](C(=O)N1C[C@@H](Oc2cccc(OCCOCCCCCCOCCCCCCNc3cccc4c3C(=O)N(C3CCC(=O)NC3=O)C4=O)c2)C[C@H]1C(=O)N[C@@H]1CCCc2ccccc21)C1CCCCC1 (stereo partly drawn) [PROTAC 25, (2S,4S)-1-((S)-2-Cyclohexyl-2-((S)-2-(methylamino)propanamido)acetyl)-4-(3-(2-((6-((6-((2-(2,6-dioxopiperidin-3-yl)-1,3-dioxoisoindolin-4-yl)amino)hexyl)oxy)hexyl)oxy)ethoxy)phenoxy)-N-((R)-1,2,3,4-tetrahydronaphthalen-1-yl)pyrrolidine-2-carboxamide] | below the detection level | 6 | pronounced pan-IAP depletion and Complete cIAP1 and XIAP depletion occurred already at 10 nM and 0.1 μM concentration was needed for the complete depletion of all IAPs |  | below the detection level | ≤ 3 h | -3.7 | logFC BIRC2 (cIAP1 (BIRC2); 0.1 μM, log2 fold change compound vs CTRLs (limma)): -2.352; IC50 (MOLM13; MOLM-13, read-out: MOLM13): 52 nM; IC50 (JJN3; JJN-3, read-out: JJN3): 180 nM; IC50 (NCI-H929; NCI-H929, 96 h, read-out: IC50 cell viability NCI-H929): 27 nM; IC50 (DB; DB, read-out: DB): 160 nM; IC50 (RPMI-8826; read-out: RPMI-8826): 1520 nM; IC50 (SUDHL4; SU-DHL-4, read-out: SUDHL4): 920 nM
CN[C@@H](C)C(=O)N[C@H](C(=O)N1C[C@@H](Oc2cccc(OCCCCCCOCCCCCCOCCCCCCNc3cccc4c3C(=O)N(C3CCC(=O)NC3=O)C4=O)c2)C[C@H]1C(=O)N[C@@H]1CCCc2ccccc21)C1CCCCC1 (stereo partly drawn) [PROTAC 27, (2S,4S)-1-((S)-2-Cyclohexyl-2-((S)-2-(methylamino)propanamido)acetyl)-4-(3-((6-((6-((6-((2-(2,6-dioxopiperidin-3-yl)-1,3-dioxoisoindolin-4-yl)amino)hexyl)oxy)hexyl)oxy)hexyl)oxy)phenoxy)-N-((R)-1,2,3,4-tetrahydronaphthalen-1-yl)pyrrolidine-2-carboxamide] | no impact | 7.2 | isoform-selective XIAP degradation |  | selective XIAP degradation |  |  | 
